A word on the solubility (kinetic): it is solubility judged after dilution from a stock solution rather than from solid. What is called half-life is how long it takes for the measured level to halve. Higher therefore signals slow decline.

Values after ≈ are worked out from the molar mass of the structure shown.

The values that follow come from US20260085069A1, “PRODRUGS” (Cambridge Enterprise Limited, priority 2022, published 2026).

The format of series [1] is in vitro ADME. As to conditions: rat plasma, 37° C. As to the method: 5 μL of a 10 mM stock solution of the Examples were dissolved in 495 μL DMSO to afford 500 μL working solution Assay procedure:
98 μL plasma was added to each well of a 96-well reaction plate, using one plate per timepoint (Blank, TO, T10, T30, T60, and T120). 2 μL of working solution was added to each well of the reaction plates except Blank. Each plate was incubated at 37° C. for the indicated timepoint (0, 10, 30, 60, 120 minutes). At the end of incubation, 400 μL of stop solution (200 ng/mL tolbutamide and 200 ng/mL labetalol in 0.1% FA in ACN) was added to precipitate protein. The plates were then sealed and shaken for 20 minutes before centrifugation at 4000 rpm for 20 minutes. […] Formation of parent was also monitored as a metabolite.

A short description of series [2]: Solubility in simulated fluids (kinetic solubility, 24 hours). It counts as physicochemical. As to conditions: thermodynamic from solid, 24 hour timepoint, room temperature. The method, then:
A known quantity of the Examples and control compounds were weighed into a suitable vessel (whatman miniuniprep vials) and a known volume of the required media was added (e.g. Simulated Gastric Fluid pH 1.2 [SGF], Simulated Fasted State Intestinal Fluid pH 6.5 [FaSSIF] or Phosphate Buffered Saline pH 7.4 [PBS]). The samples were subjected to vortex mixing for 2 minutes followed by agitation on a shaker for 24 hours at room temperature at 800 rpm.

A further series is described as follows: in vitro. In kind it is in vitro ADME. As to conditions: rat intestinal microsomes, NADPH, 37° C. The method, then: 5 μL of a 10 mM stock solution of the Examples were dissolved in 495 μL acetonitrile to afford 500 μL working solution.
The appropriate amount of β-Nicotinamide adenine dinucleotide phosphate reduced form, tetrasodium salt; NADPH-4Na (NADPH) powder was weighed and diluted into a 10 mM MgCl2 solution (working solution concentration: 10 unit/mL; final concentration in reaction system: 1 unit/mL).
The appropriate concentrations of rat intestinal microsome (Xenotech, cat. No R1000.1) working solutions were prepared in 100 mM potassium phosphate buffer.
Cold (4° C.) acetonitrile (ACN) containing 200 ng/mL tolbutamide and 200 ng/mL labetalol as internal standards (IS).
Incubation plates were pre-incubated for 10 minutes at 37° C. with constant shaking. 54 μL was transferred from Incubation plates into a blank plate and then 6 μL NADPH cofactor and 180 μL quenching solution was added to the Incubation plates. 5 μL Example working solution (100 μM) was also added to the Incubation plates and mixed thoroughly.
The T60 Incubation plate was mixed thoroughly and for the 0-min timepoint, 54 μL was transferred into a Quenching plate (containing 180 μL quenching solution and 6 μL NADPH cofactor). 44 μL NADPH cofactor was then added to the T60 Incubation plate and incubated at 37° C. for 60 min while shaking. At 5, 15, 30, 45, and 60 min, 60 μL samples were transferred from T60 Incubation plate into a Quenching plate (containing 180 μl quenching solution). For the NCF60 Incubation plate, 50 μL of buffer was added and mixed thoroughly before incubation at 37° C. for 60 min while shaking, at the 60-min time point 60 μL was transferred to the Quenching plate (containing 180 μl quenching solution). All sampling plates were shaken for 10 min, then centrifuged at 4000 rpm for 20 minutes at 4° C. 80 μL supernatant was transferred into 240 μL HPLC water, and mixed for 10 min.

Series [3] in a line: Stability in aqueous media (FaSSIF, SGF, PBS). In kind it is physicochemical. The conditions noted are these: for FaSSIF (pH 6.5) % remaining 1 h / FaSSIF (pH 6.5) % remaining 6 h / FaSSIF (pH 6.5) % remaining 24 h: FaSSIF pH 6.5, 37° C.; for PBS (pH 7.4) % remaining 1 h / PBS (pH 7.4) % remaining 6 h / PBS (pH 7.4) % remaining 24 h: PBS pH 7.4, 37° C.; for SGF (pH 1.2) % remaining 1 h / SGF (pH 1.2) % remaining 6 h / SGF (pH 1.2) % remaining 24 h: SGF pH 1.2, 37° C. As to the method:
10 μL of a 10 mM stock solution of the Examples were dissolved in 490 μL DMSO to afford […] working solution SGF (pH 1.2):
Dissolve 0.04 g NaCl and 0.064 g pepsin in 0.14 mL HCl and add sufficient water to 20 mL volume. The pH of the test solution was 1.20±0.05.
0.056% (w/v) lecithin, 0.161% (w/v) sodium taurocholate, 0.39% (w/v) monobasic potassium phosphate, 0.77% (w/v) potassium chloride, deionized H2O. The pH of the test solution was 6.5±0.05.
30 mL of 10×PBS (pH7.4) was added into a 50 mL flask and diluted with water. The solution was mixed well and adjusted to pH 7.4 with 1 N HCl.
2 μL of the 200 μL working solution of the Examples was added into 96-deep-well plates for TO, T60, T120, T360 and T1440 timepoints. Duplicates were prepared.
Stability studies were commenced by the addition of 198 μL of the required media (e.g. Simulated Gastric Fluid pH 1.2 [SGF], Simulated Fasted State Intestinal Fluid pH 6.5 [FaSSIF]) and Phosphate Buffered Saline pH 7.4 [PBS]) to each well except TO. The samples were incubated at 37° C. at 600 rpm for the appointed time. The samples at the corresponding timepoint were removed and immediately mixed with 400 μL of cold acetonitrile containing 200 ng/mL tolbutamide and labetalol (internal standard). The samples were centrifuged at 4000 rpm at 4° C. for 20 minutes. 60 μL of the supernatant was removed and mixed with 180 μL purified water and thoroughly mixed and analysed by LCMS (Shimadzu LC 30-AD, ACQUITY UPLC BEH Phenyl 1.7 um 2.1*50 mm Part No. 186002884, with mobile phase A: 0.1% formic acid in water, mobile phase B: 0.1% formic acid in acetonitrile). Formation of parent was also monitored as a metabolite.
Samples were analysed by Mass Spectrometry QTRAP 6500+.

Setting [4] is: simulated gastric fluid, SGF (pH 1.2).

As to `CCOC(=O)c1ccc2c(c1)nc(OCCOCCCCNCc1cc(F)c(OC(F)(F)F)c(F)c1)c1ccncc12` [Example 8, ethyl 5-(2-(4-((3,5-difluoro-4-(trifluoromethoxy)benzyl)amino)butoxy)ethoxy)benzo[c][2,6]naphthyridine-8-carboxylate], in series [1], the “% Example remaining 0 min” value is given as 100.0%, the “Example concentration (nM) 0 min” value is recorded as 1687.0 nM, the “% Example remaining 10 min” value is 0.2% and the “Example concentration (nM) 10 min” value is listed as 3.1 nM. In series [2] (setting [4]), this compound displayed a kinetic solubility at 24 h of 17.8 µg/mL (≈ 30 µM). Moreover, the solubility (kinetic) at 24 h in series [2] (FaSSIF (pH 6.5)) is 82.8 µg/mL (≈ 139 µM). Besides, in the series “in vitro”, the “CIint(mic)” value is 37.6 µL/min/mg and the half-life at 1 µM stood at 61.4 min. Further, in series [3], the “FaSSIF (pH 6.5) % remaining 1 h” value was 98.5%, the “FaSSIF (pH 6.5) % remaining 6 h” value is 102.6%, the “FaSSIF (pH 6.5) % remaining 24 h” value worked out at 100.4% and the “PBS (pH 7.4) % remaining 1 h” value is on record as 63.2%. In addition, in series [3], the “PBS (pH 7.4) % remaining 6 h” value is listed as 25.3%, the “PBS (pH 7.4) % remaining 24 h” value was 7.6%, the “SGF (pH 1.2) % remaining 1 h” value was determined as 108.2% and the “SGF (pH 1.2) % remaining 6 h” value came out at 63.8%. Also, in series [3], the “SGF (pH 1.2) % remaining 24 h” value is on record as 23.3%.

Regarding `CC(=O)OCOC(=O)c1ccc2c(c1)nc(OCCOCCCCNCc1cc(F)c(OC(F)(F)F)c(F)c1)c1ccncc12` [Example 10, acetoxymethyl 5-(2-(4-((3,5-difluoro-4-(trifluoromethoxy)benzyl)amino)butoxy)ethoxy)benzo[c][2,6]naphthyridine-8-carboxylate], in series [1], the “% Example remaining 0 min” value amounted to 100.0%, the “Example concentration (nM) 0 min” value is 2023.5 nM, the “% Example remaining 10 min” value was 0.1% and the “Example concentration (nM) 10 min” value turned out to be 2.1 nM. Further, the kinetic solubility at 24 h in series [2] (setting [4]) was 20.9 µg/mL (≈ 32.8 µM). In series [2] (FaSSIF (pH 6.5)), the kinetic solubility at 24 h was 91.3 µg/mL (≈ 143 µM). In the series “in vitro”, the “CIint(mic)” value was 61.8 µL/min/mg and the half-life at 1 µM worked out at 37.4 min. Further, in series [3], the “FaSSIF (pH 6.5) % remaining 1 h” value came to 101.7%, the “FaSSIF (pH 6.5) % remaining 6 h” value came out at 97.1%, the “FaSSIF (pH 6.5) % remaining 24 h” value amounted to 104.4% and the “PBS (pH 7.4) % remaining 1 h” value is on record as 78.8%. Also, in series [3], the “PBS (pH 7.4) % remaining 6 h” value stood at 7.1%, the “PBS (pH 7.4) % remaining 24 h” value stood at 1.1%, the “SGF (pH 1.2) % remaining 1 h” value amounted to 101.5% and the “SGF (pH 1.2) % remaining 6 h” value amounted to 55.9%. In addition, the “SGF (pH 1.2) % remaining 24 h” value in series [3] is recorded as 10.1%.

`CC(C)OC(=O)OCOC(=O)c1ccc2c(c1)nc(OCCOCCCCNCc1cc(F)c(OC(F)(F)F)c(F)c1)c1ccncc12` [Example 14, ((isopropoxycarbonyl)oxy)methyl 5-(2-(4-((3,5-difluoro-4-(trifluoromethoxy)benzyl)amino)butoxy)ethoxy)benzo[c][2,6]naphthyridine-8-carboxylate] showed a kinetic solubility at 24 h in series [2] (setting [4]) of 15 µg/mL (≈ 22 µM). The compound also had a kinetic solubility at 24 h in series [2] (FaSSIF (pH 6.5)) of 100 µg/mL (≈ 147 µM). Further, in “in vitro”, the “CIint(mic)” value is 1604.8 µL/min/mg and the half-life at 1 µM stood at 1.4 min. For the same compound, in series [3], the “FaSSIF (pH 6.5) % remaining 1 h” value is 98.2%, the “FaSSIF (pH 6.5) % remaining 6 h” value is recorded as 93.6%, the “FaSSIF (pH 6.5) % remaining 24 h” value stood at 102.8% and the “PBS (pH 7.4) % remaining 1 h” value was found to be 91.7%. Also, in series [3], the “PBS (pH 7.4) % remaining 6 h” value is 34.3%, the “PBS (pH 7.4) % remaining 24 h” value is listed as 4.4%, the “SGF (pH 1.2) % remaining 1 h” value is on record as 105.1% and the “SGF (pH 1.2) % remaining 6 h” value came out at 63.8%. The “SGF (pH 1.2) % remaining 24 h” value in series [3] was found to be 23.2%.
